Each compound was assayed against PAFR (Homo sapiens, UniProt P25105) (assay: PAF Binding Assay (PAFR binding)).
PAFR, sequence (P25105 whole entry): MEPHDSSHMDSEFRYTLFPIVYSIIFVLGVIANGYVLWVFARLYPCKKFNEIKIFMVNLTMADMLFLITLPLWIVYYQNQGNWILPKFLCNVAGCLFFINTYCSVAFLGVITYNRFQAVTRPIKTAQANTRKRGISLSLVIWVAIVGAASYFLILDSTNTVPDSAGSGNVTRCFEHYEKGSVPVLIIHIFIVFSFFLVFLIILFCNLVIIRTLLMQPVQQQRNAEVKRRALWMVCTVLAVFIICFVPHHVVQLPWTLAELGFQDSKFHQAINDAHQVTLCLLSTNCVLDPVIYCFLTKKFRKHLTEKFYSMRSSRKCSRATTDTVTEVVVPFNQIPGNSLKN

Row | SMILES | IC50
1 | Cc1nncn1[C@@H]1CCC[C@H](NS(=O)(=O)c2ccc(-c3cnc(Cl)c(F)c3)c(F)c2)C1 [Compound 2Fg, 4-(6-chloro-5-fluoropyridin-3-yl)-3-fluoro-N-[(1S,3R)-3-(3-methyl-4H-1,2,4-triazol-4-yl)cyclohexyl]benzenesulfonamide] | 36 nM
2 | Cc1nncn1[C@@H]1CCC[C@H](NS(=O)(=O)c2ccc(OCCCCF)c(F)c2)C1 [Compound 2Fi, 3-fluoro-4-(4-fluorobutoxy)-N-[(1S,3R)-3-(3-methyl-4H-1,2,4-triazol-4-yl)cyclohexyl]benzenesulfonamide] | 9.7 nM
3 | CCCCOc1ccc(S(=O)(=O)N[C@H]2CCC[C@@H](n3cnnc3C)C2)cc1F [Compound 2Fj, 4-butoxy-3-fluoro-N-[(1S,3R)-3-(3-methyl-4H-1,2,4-triazol-4-yl)cyclohexyl]benzenesulfonamide] | 1.9 nM
4 | O=S(=O)(N[C@@H]1C[C@H](n2cnnc2)CC(F)(F)C1)c1ccc(-c2ccc(OC(F)(F)F)cc2)c(F)c1 [Compound 2Ga, N-[(1R,5S)-3,3-difluoro-5-(4H-1,2,4-triazol-4-yl)cyclohexyl]-2-fluoro-4′-(trifluoromethoxy)biphenyl-4-sulfonamide] | 10 nM
5 | Cc1nncn1[C@H]1C[C@@H](NS(=O)(=O)c2ccc(OCCCCF)c(F)c2)CC(F)(F)C1 [Compound 2Hi, N-[(1R,5S)-3,3-difluoro-5-(3-methyl-4H-1,2,4-triazol-4-yl)cyclohexyl]-3-fluoro-4-(4-fluorobutoxy)benzenesulfonamide] | 6.8 nM
6 | CCCCOc1ccc(S(=O)(=O)N[C@@H]2C[C@H](n3cnnc3C)CC(F)(F)C2)cc1F [Compound 2Hj, 4-butoxy-N-[(1R,5S)-3,3-difluoro-5-(3-methyl-4H-1,2,4-triazol-4-yl)cyclohexyl]-3-fluorobenzenesulfonamide] | 3.6 nM
7 | O=S(=O)(N[C@H]1CCC[C@@H](n2cnnc2)C1)c1ccc(-c2ccc(OC(F)(F)F)cc2)cc1F [Compound 2Ig, 3-fluoro-N-[(1S,3R)-3-(4H-1,2,4-triazol-4-yl)cyclohexyl]-4′-(trifluoromethoxy)biphenyl-4-sulfonamide] | 16 nM
8 | Cc1nncn1[C@@H]1CCC[C@H](NS(=O)(=O)c2ccc(-c3noc(C4CC4)n3)cc2F)C1 [Compound 2Ja, 4-(5-cyclopropyl-1,2,4-oxadiazol-3-yl)-2-fluoro-N-[(1S,3R)-3-(3-methyl-4H-1,2,4-triazol-4-yl)cyclohexyl]benzenesulfonamide] | 22 nM
9 | Cc1nncn1[C@@H]1CCC[C@H](NS(=O)(=O)c2ccc(-c3ccc(OC(F)(F)F)cc3)cc2F)C1 [Compound 2Jg, 3-fluoro-N-[(1S,3R)-3-(3-methyl-4H-1,2,4-triazol-4-yl)cyclohexyl]-4′-(trifluoromethoxy)biphenyl-4-sulfonamide] | 10 nM
10 | CCCCOc1ccc(S(=O)(=O)N[C@H]2CCC[C@@H](n3cnnc3C)C2)c(F)c1 [Compound 2Ji, 4-butoxy-2-fluoro-N-[(1S,3R)-3-(3-methyl-4H-1,2,4-triazol-4-yl)cyclohexyl]benzenesulfonamide] | 4 nM
11 | CC(F)(F)c1nc(-c2ccc(S(=O)(=O)N[C@H]3CCC[C@@H](n4cnnc4)C3)c(C3CC3)c2)no1 [Compound 2Kc, 2-cyclopropyl-4-[5-(1,1-difluoroethyl)-1,2,4-oxadiazol-3-yl]-N-[(1S,3R)-3-(4H-1,2,4-triazol-4-yl)cyclohexyl]benzenesulfonamide] | 9.9 nM
12 | O=S(=O)(N[C@H]1CCC[C@@H](n2cnnc2)C1)c1ccc(-c2noc(C3(O)CC3)n2)cc1C1CC1 [Compound 2Ke, 2-cyclopropyl-4-[5-(1-hydroxycyclopropyl)-1,2,4-oxadiazol-3-yl]-N-[(1S,3R)-3-(4H-1,2,4-triazol-4-yl)cyclohexyl]benzenesulfonamide] | 337 nM
13 | O=S(=O)(N[C@H]1CCC[C@@H](n2cnnc2)C1)c1cc(F)cc(F)c1 [Compound 2Ma, 3,5-difluoro-N-[(1S,3R)-3-(4H-1,2,4-triazol-4-yl)cyclohexyl]benzenesulfonamide] | 2900 nM
14 | CCOc1ccc(S(=O)(=O)N[C@H]2CCC[C@@H](n3cnnc3)C2)cc1 [Compound 2Maa, 4-ethoxy-N-[(1S,3R)-3-(4H-1,2,4-triazol-4-yl)cyclohexyl]benzenesulfonamide] | 39 nM
15 | O=S(=O)(N[C@H]1CCC[C@@H](n2cnnc2)C1)c1ccc(Oc2ncc(C(F)(F)F)cc2Cl)cc1 [Compound 2Mab, 4-{[3-chloro-5-(trifluoromethyl)pyridin-2-yl]oxy}-N-[(1S,3R)-3-(4H-1,2,4-triazol-4-yl)cyclohexyl]benzenesulfonamide] | 66 nM
16 | O=S(=O)(N[C@H]1CCC[C@@H](n2cnnc2)C1)c1ccc(OCCCC(F)(F)F)cc1 [Compound 2Mac, N-[(1S,3R)-3-(4H-1,2,4-triazol-4-yl)cyclohexyl]-4-(4,4,4-trifluorobutoxy)benzenesulfonamide] | 8.3 nM

Continued, values first:

Row | IC50 | SMILES
17 | 5.1 nM | CC(C)Oc1ccc(-c2ccc(S(=O)(=O)N[C@H]3CCC[C@@H](n4cnnc4)C3)cc2F)cn1 [Compound 2Ee, 3-fluoro-4-(6-isopropoxypyridin-3-yl)-N-[(1S,3R)-3-(4H-1,2,4-triazol-4-yl)cyclohexyl]benzenesulfonamide]
18 | 7 nM | O=S(=O)(N[C@H]1CCC[C@@H](n2cnnc2)C1)c1ccc(-c2ccc(OCC(F)(F)F)nc2)c(F)c1 [Compound 2Ef, 3-fluoro-N-[(1S,3R)-3-(4H-1,2,4-triazol-4-yl)cyclohexyl]-4-[6-(2,2,2-trifluoroethoxy)pyridin-3-yl]benzenesulfonamide]
19 | 0.2 nM | Cc1nncn1[C@@H]1CCC[C@H](NS(=O)(=O)c2ccc(-c3ccc(OC(F)(F)F)cc3)c(F)c2)C1 [Compound 2Fa, 2-fluoro-N-[(1S,3R)-3-(3-methyl-4H-1,2,4-triazol-4-yl)cyclohexyl]-4′-(trifluoromethoxy)biphenyl-4-sulfonamide]
20 | 0.8 nM | Cc1nncn1[C@@H]1CCC[C@H](NS(=O)(=O)c2ccc(-c3ccc(OCC(F)(F)F)cc3)c(F)c2)C1 [Compound 2Fb, 2-fluoro-N-[(1S,3R)-3-(3-methyl-4H-1,2,4-triazol-4-yl)cyclohexyl]-4′-(2,2,2-trifluoroethoxy)biphenyl-4-sulfonamide]
21 | 1.9 nM | Cc1nncn1[C@@H]1CCC[C@H](NS(=O)(=O)c2ccc(-c3ccc(OC(F)F)cc3)c(F)c2)C1 [Compound 2Fc, 4′-(difluoromethoxy)-2-fluoro-N-[(1S,3R)-3-(3-methyl-4H-1,2,4-triazol-4-yl)cyclohexyl]biphenyl-4-sulfonamide]
22 | 3.6 nM | Cc1nncn1[C@@H]1CCC[C@H](NS(=O)(=O)c2ccc(-c3ccc(OC(C)C)nc3)c(F)c2)C1 [Compound 2Fe, 3-fluoro-4-(6-isopropoxypyridin-3-yl)-N-[(1S,3R)-3-(3-methyl-4H-1,2,4-triazol-4-yl)cyclohexyl]benzenesulfonamide]
23 | 1 nM | Cc1nncn1[C@@H]1CCC[C@H](NS(=O)(=O)c2ccc(-c3ccc(OCC(F)(F)F)nc3)c(F)c2)C1 [Compound 2Ff, 3-fluoro-N-[(1S,3R)-3-(3-methyl-4H-1,2,4-triazol-4-yl)cyclohexyl]-4-[6-(2,2,2-trifluoroethoxy)pyridin-3-yl]benzenesulfonamide]
24 | 9.9 nM | Cc1nncn1[C@@H]1CCC[C@H](NS(=O)(=O)c2ccc(-c3noc(C4CC4)n3)c(F)c2)C1 [Compound 2Fh, 4-(5-cyclopropyl-1,2,4-oxadiazol-3-yl)-3-fluoro-N-[(1S,3R)-3-(3-methyl-4H-1,2,4-triazol-4-yl)cyclohexyl]benzenesulfonamide]
25 | 7.2 nM | CC(C)Oc1ccc(-c2ccc(S(=O)(=O)N[C@@H]3C[C@H](n4cnnc4)CC(F)(F)C3)cc2F)cc1 [Compound 2Gd, N-[(1R,5S)-3,3-difluoro-5-(4H-1,2,4-triazol-4-yl)cyclohexyl]-2-fluoro-4′-isopropoxybiphenyl-4-sulfonamide]
26 | 1.4 nM | Cc1nncn1[C@H]1C[C@@H](NS(=O)(=O)c2ccc(-c3ccc(OC(F)(F)F)cc3)c(F)c2)CC(F)(F)C1 [Compound 2Ha, N-[(1R,5S)-3,3-difluoro-5-(3-methyl-4H-1,2,4-triazol-4-yl)cyclohexyl]-2-fluoro-4′-(trifluoromethoxy)biphenyl-4-sulfonamide]
27 | 0.6 nM | Cc1nncn1[C@H]1C[C@@H](NS(=O)(=O)c2ccc(-c3ccc(OCC(F)(F)F)nc3)c(F)c2)CC(F)(F)C1 [Compound 2Hf, N-[(1R,5S)-3,3-difluoro-5-(3-methyl-4H-1,2,4-triazol-4-yl)cyclohexyl]-3-fluoro-4-[6-(2,2,2-trifluoroethoxy)pyridin-3-yl]benzenesulfonamide]
28 | 4 nM | O=S(=O)(N[C@H]1CCC[C@@H](n2cnnc2)C1)c1ccc(-c2ccc(OCC(F)(F)F)nc2)cc1F [Compound 2Ih, 2-fluoro-N-[(1S,3R)-3-(4H-1,2,4-triazol-4-yl)cyclohexyl]-4-[6-(2,2,2-trifluoroethoxy)pyridin-3-yl]benzenesulfonamide]
29 | 3.4 nM | Cc1nncn1[C@@H]1CCC[C@H](NS(=O)(=O)c2ccc(-c3ccc(OCC(F)(F)F)nc3)cc2F)C1 [Compound 2Jh, 2-fluoro-N-[(1S,3R)-3-(3-methyl-4H-1,2,4-triazol-4-yl)cyclohexyl]-4-[6-(2,2,2-trifluoroethoxy)pyridin-3-yl]benzenesulfonamide]
30 | 2.7 nM | O=S(=O)(N[C@H]1CCC[C@@H](n2cnnc2)C1)c1ccc(-c2noc(C3CC3)n2)cc1C1CC1 [Compound 2Ka, 2-cyclopropyl-4-(5-cyclopropyl-1,2,4-oxadiazol-3-yl)-N-[(1S,3R)-3-(4H-1,2,4-triazol-4-yl)cyclohexyl]benzenesulfonamide]
31 | 2.8 nM | O=S(=O)(N[C@H]1CCC[C@@H](n2cnnc2)C1)c1ccc(-c2noc(C3CCC3)n2)cc1C1CC1 [Compound 2Kf, 4-(5-cyclobutyl-1,2,4-oxadiazol-3-yl)-2-cyclopropyl-N-[(1S,3R)-3-(4H-1,2,4-triazol-4-yl)cyclohexyl]benzenesulfonamide]
32 | 1.3 nM | Cc1nncn1[C@H]1C[C@@H](NS(=O)(=O)c2ccc(-c3noc(C4CC4)n3)cc2C2CC2)CC(F)(F)C1 [Compound 2Lj, 2-cyclopropyl-4-(5-cyclopropyl-1,2,4-oxadiazol-3-yl)-N-[(1R,5S)-3,3-difluoro-5-(3-methyl-4H-1,2,4-triazol-4-yl)cyclohexyl]benzenesulfonamide]

Source: patent US9029377B2, “Platelet-activating factor receptor antagonists” (Merck Sharp & Dohme Corp., priority 2009, dated 2015)
